The values that follow come from US8309718B2, “4-pyrazolyl-N-arylpyrimidin-2-amines and 4-pyrazolyl-N-heteroarylpyrimidin-2-amines as janus kinase inhibitors” (Incyte Corporation, priority 2007, dated 2012).

Each structure is given as a SMILES string.

The target of the experiment is T1, human JAK2 (Homo sapiens, UniProt O60674).
T1 construct: JAK2 (a.a. 828-1132); His tag (N); made in house; host or cells: insect cells (baculovirus)
T1 sequence (O60674 828-1132): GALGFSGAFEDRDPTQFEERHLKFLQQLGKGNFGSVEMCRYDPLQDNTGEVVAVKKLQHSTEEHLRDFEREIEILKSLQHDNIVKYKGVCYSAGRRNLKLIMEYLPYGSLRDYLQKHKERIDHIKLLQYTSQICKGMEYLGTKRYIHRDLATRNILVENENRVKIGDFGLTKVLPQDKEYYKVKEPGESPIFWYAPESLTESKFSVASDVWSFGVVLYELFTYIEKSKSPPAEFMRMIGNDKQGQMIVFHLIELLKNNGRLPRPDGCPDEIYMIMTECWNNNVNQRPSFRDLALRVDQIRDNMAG
In words: In vitro JAK kinase assay (HTRF, phosphorylation of biotinylated peptide). In kind it is biochemical. To be noted: catalytic domain a.a. 828-1132, 30 μM ATP, 500 nM peptide, room temperature 1 hr; read-out: JAK-2 IC50. In a few lines:
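IC50 from HTRF detection (Eu-Py20 antibody, SA-APC) of biotinylated-peptide phosphorylation (500 nM), run 1 h at RT. Enzyme: N-His human JAK2 kinase domain a.a. 828-1132 from insect cells; ATP 30 μM; buffer 50 mM Tris pH 7.8 with NaCl, DTT, BSA.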
Turning to `CN(C)C(=O)c1ccc(Nc2nccc(-c3cnn(C(CC#N)C4CCCC4)c3)n2)cc1` (racemic) [Example 40, 4-(4-(1-(2-cyano-1-cyclopentylethyl)-1H-pyrazol-4-yl)pyrimidin-2-ylamino)-N,N-dimethylbenzamide], the IC50 was less than 100 nM.
The same measure for `N#CCC(C1CCCC1)n1cc(-c2ccnc(Nc3ccc(N4CCNCC4)cc3)n2)cn1` (racemic) [Example 41, 3-cyclopentyl-3-(4-(2-(4-(piperazin-1-yl)phenylamino)pyrimidin-4-yl)-1H-pyrazol-1-yl)propanenitrile]: less than 100 nM; for `CCS(=O)(=O)N1CCC(CC(CC#N)n2cc(-c3ccnc(Nc4ccc(N5CCOCC5)cc4)n3)cn2)CC1` (racemic) [Example 42, 4-(1-(ethylsulfonyl)piperidin-4-yl)-3-(4-(2-(4-morpholinophenylamino)pyrimidin-4-yl)-1H-pyrazol-1-yl)butanenitrile]: less than 100 nM; for `CCS(=O)(=O)N1CCC(CC(CC#N)n2cc(-c3ccnc(Nc4ccc(-n5cccn5)cc4)n3)cn2)CC1` (racemic) [Example 43, 3-(4-(2-(4-(1H-pyrazol-1-yl)phenylamino)pyrimidin-4-yl)-1H-pyrazol-1-yl)-4-(1-(ethylsulfonyl)piperidin-4-yl)butanenitrile]: less than 100 nM.
The same measure for `CCS(=O)(=O)N1CCC(CC(CC#N)n2cc(-c3ccnc(Nc4ccccc4)n3)cn2)CC1` (racemic) [Example 44, 4-(1-(ethylsulfonyl)piperidin-4-yl)-3-(4-(2-(phenylamino)pyrimidin-4-yl)-1H-pyrazol-1-yl)butanenitrile]: less than 100 nM; for `CC(=O)Nc1ccc(Nc2nccc(-c3cnn(C(CC#N)CC4CCN(S(=O)(=O)c5ccn(C)n5)CC4)c3)n2)cc1` (racemic) [Example 45, N-(4-(4-(1-(1-cyano-3-(1-(1-methyl-1H-pyrazol-3-ylsulfonyl)piperidin-4-yl)propan-2-yl)-1H-pyrazol-4-yl)pyrimidin-2-ylamino)phenyl)acetamide]: less than 100 nM.
To `CCS(=O)(=O)N1CCC(CC(CC#N)n2cc(-c3ccnc(Nc4ccc(C(=O)N(C)C)cc4)n3)cn2)CC1` (racemic) [Example 46, 4-(4-(1-(1-cyano-3-(1-(ethylsulfonyl)piperidin-4-yl)propan-2-yl)-1H-pyrazol-4-yl)pyrimidin-2-ylamino)-N,N-dimethylbenzamide] belongs less than 100 nM; to `Cn1ccc(S(=O)(=O)N2CCC(CC(CC#N)n3cc(-c4ccnc(Nc5ccc(C(N)=O)cc5)n4)cn3)CC2)n1` (racemic) [Example 47, 4-(4-(1-(1-cyano-3-(1-(1-methyl-1H-pyrazol-3-ylsulfonyl)piperidin-4-yl)propan-2-yl)-1H-pyrazol-4-yl)pyrimidin-2-ylamino)benzamide], less than 100 nM; to `CCS(=O)(=O)N1CCC(CC(CC#N)n2cc(-c3nc(Nc4ccc(N5CCOCC5)cc4)ncc3C)cn2)CC1` (racemic) [Example 48, 4-(1-(ethylsulfonyl)piperidin-4-yl)-3-(4-(5-methyl-2-(4-morpholinophenylamino)pyrimidin-4-yl)-1H-pyrazol-1-yl)butanenitrile], less than 100 nM.
For the molecule `CCS(=O)(=O)N1CCC(CC(CC#N)n2cc(-c3nc(Nc4ccc(-n5cccn5)cc4)ncc3C)cn2)CC1` (racemic) [Example 49, 3-(4-(2-(4-(1H-pyrazol-1-yl)phenylamino)-5-methylpyrimidin-4-yl)-1H-pyrazol-1-yl)-4-(1-(ethylsulfonyl)piperidin-4-yl)butanenitrile], the IC50 was less than 100 nM.
The same measure for `CCS(=O)(=O)N1CCC(CC(CC#N)n2cc(-c3nc(Nc4ccccc4)ncc3C)cn2)CC1` (racemic) [Example 50, 4-(1-(ethylsulfonyl)piperidin-4-yl)-3-(4-(5-methyl-2-(phenylamino)pyrimidin-4-yl)-1H-pyrazol-1-yl)butanenitrile]: less than 100 nM.
On to `CC(=O)Nc1ccc(Nc2ncc(C)c(-c3cnn(C(CC#N)CC4CCN(S(=O)(=O)c5ccn(C)n5)CC4)c3)n2)cc1` (racemic) [Example 51, N-(4-(4-(1-(1-cyano-3-(1-(1-methyl-1H-pyrazol-3-ylsulfonyl)piperidin-4-yl)propan-2-yl)-1H-pyrazol-4-yl)-5-methylpyrimidin-2-ylamino)phenyl)acetamide], for which the IC50 is less than 100 nM.
Take `CCS(=O)(=O)N1CCC(CC(CC#N)n2cc(-c3nc(Nc4ccc(C(=O)N(C)C)cc4)ncc3C)cn2)CC1` (racemic) [Example 52, 4-(4-(1-(1-cyano-3-(1-(ethylsulfonyl)piperidin-4-yl)propan-2-yl)-1H-pyrazol-4-yl)-5-methylpyrimidin-2-ylamino)-N,N-dimethylbenzamide]: the half-maximal inhibitory concentration (IC50) was less than 100 nM.
Turning to `Cc1cnc(Nc2ccc(C(N)=O)cc2)nc1-c1cnn(C(CC#N)CC2CCN(S(=O)(=O)c3ccn(C)n3)CC2)c1` (racemic) [Example 53, 4-(4-(1-(1-cyano-3-(1-(1-methyl-1H-pyrazol-3-ylsulfonyl)piperidin-4-yl)propan-2-yl)-1H-pyrazol-4-yl)-5-methylpyrimidin-2-ylamino)benzamide], the half-maximal inhibitory concentration (IC50) is less than 100 nM.
Turning to `CS(=O)(=O)N1CCN(c2ccc(Nc3nccc(-c4cnn(C(CC#N)C5CCCC5)c4)n3)cc2)CC1` (racemic) [Example 54, 3-cyclopentyl-3-(4-(2-(4-(4-(methylsulfonyl)piperazin-1-yl)phenylamino)pyrimidin-4-yl)-1H-pyrazol-1-yl)propanenitrile], the half-inhibitory concentration (IC50) was less than 100 nM.
With `Cn1ccc(S(=O)(=O)N2CCC(CC(CC#N)n3cc(-c4ccnc(Nc5ccc(N6CCOCC6)cc5)n4)cn3)CC2)n1` (racemic) [Example 55, 4-(1-(1-methyl-1H-pyrazol-3-ylsulfonyl)piperidin-4-yl)-3-(4-(2-(4-morpholinophenylamino)pyrimidin-4-yl)-1H-pyrazol-1-yl)butanenitrile], the half-inhibitory concentration (IC50) is less than 100 nM.
To `Cn1ccc(S(=O)(=O)N2CCC(CC(CC#N)n3cc(-c4ccnc(Nc5ccc(-n6cccn6)cc5)n4)cn3)CC2)n1` (racemic) [Example 56, 3-(4-(2-(4-(1H-pyrazol-1-yl)phenylamino)pyrimidin-4-yl)-1H-pyrazol-1-yl)-4-(1-(1-methyl-1H-pyrazol-3-ylsulfonyl)piperidin-4-yl)butanenitrile] belongs less than 100 nM; to `Cn1ccc(S(=O)(=O)N2CCC(CC(CC#N)n3cc(-c4ccnc(Nc5ccccc5)n4)cn3)CC2)n1` (racemic) [Example 57, 4-(1-(1-methyl-1H-pyrazol-3-ylsulfonyl)piperidin-4-yl)-3-(4-(2-(phenylamino)pyrimidin-4-yl)-1H-pyrazol-1-yl)butanenitrile], less than 100 nM; to `CN(C)C(=O)c1ccc(Nc2nccc(-c3cnn(C(CC#N)CC4CCN(S(=O)(=O)c5ccn(C)n5)CC4)c3)n2)cc1` (racemic) [Example 58, 4-(4-(1-(1-cyano-3-(1-(1-methyl-1H-pyrazol-3-ylsulfonyl)piperidin-4-yl)propan-2-yl)-1H-pyrazol-4-yl)pyrimidin-2-ylamino)-N,N-dimethylbenzamide], less than 100 nM.
Take `CN(C)C(=O)c1ccc(Nc2nccc(-c3cnn(C(CC#N)CC4CCN(C(=O)c5ccc(F)cc5F)CC4)c3)n2)cc1` (racemic) [Example 59, 4-(4-(1-(1-cyano-3-(1-(2,4-difluorobenzoyl)piperidin-4-yl)propan-2-yl)-1H-pyrazol-4-yl)pyrimidin-2-ylamino)-N,N-dimethylbenzamide]: the IC50 was less than 100 nM.
The same measure for `CC(=O)Nc1ccc(Nc2nccc(-c3cnn(C(CC#N)CC4CCN(C(=O)c5ccc(F)cc5F)CC4)c3)n2)cc1` (racemic) [Example 60, N-(4-(4-(1-(1-cyano-3-(1-(2,4-difluorobenzoyl)piperidin-4-yl)propan-2-yl)-1H-pyrazol-4-yl)pyrimidin-2-ylamino)phenyl)acetamide]: less than 100 nM; for `Cc1cnc(Nc2ccc(N3CCOCC3)cc2)nc1-c1cnn(C(CC#N)CC2CCN(S(=O)(=O)c3ccn(C)n3)CC2)c1` (racemic) [Example 61, 4-(1-(1-methyl-1H-pyrazol-3-ylsulfonyl)piperidin-4-yl)-3-(4-(5-methyl-2-(4-morpholinophenylamino)pyrimidin-4-yl)-1H-pyrazol-1-yl)butanenitrile]: less than 100 nM; for `Cc1cnc(Nc2ccc(N3CCOCC3)cc2)nc1-c1cnn(C(CC#N)CC2CCN(C(=O)c3ccc(F)cc3F)CC2)c1` (racemic) [Example 62, 4-(1-(2,4-difluorobenzoyl)piperidin-4-yl)-3-(4-(5-methyl-2-(4-morpholinophenylamino)pyrimidin-4-yl)-1H-pyrazol-1-yl)butanenitrile]: less than 100 nM.
The same measure for `Cc1cnc(Nc2ccc(-n3cccn3)cc2)nc1-c1cnn(C(CC#N)CC2CCN(S(=O)(=O)c3ccn(C)n3)CC2)c1` (racemic) [Example 63, 3-(4-(2-(4-(1H-pyrazol-1-yl)phenylamino)-5-methylpyrimidin-4-yl)-1H-pyrazol-1-yl)-4-(1-(1-methyl-1H-pyrazol-3-ylsulfonyl)piperidin-4-yl)butanenitrile]: less than 100 nM; for `Cc1cnc(Nc2ccc(-n3cccn3)cc2)nc1-c1cnn(C(CC#N)CC2CCN(C(=O)c3ccc(F)cc3F)CC2)c1` (racemic) [Example 64, 3-(4-(2-(4-(1H-pyrazol-1-yl)phenylamino)-5-methylpyrimidin-4-yl)-1H-pyrazol-1-yl)-4-(1-(2,4-difluorobenzoyl)piperidin-4-yl)butanenitrile]: less than 100 nM; for `Cc1cnc(Nc2ccccc2)nc1-c1cnn(C(CC#N)CC2CCN(S(=O)(=O)c3ccn(C)n3)CC2)c1` (racemic) [Example 65, 4-(1-(1-methyl-1H-pyrazol-3-ylsulfonyl)piperidin-4-yl)-3-(4-(5-methyl-2-(phenylamino)pyrimidin-4-yl)-1H-pyrazol-1-yl)butanenitrile]: less than 100 nM.
